Measurements from PubChem BioAssay AID608 (Sanford-Burnham Center for Chemical Genomics, 2007).
Calls of active or inactive are those of the source. The rule behind the calls is not given here.

Target: Peptidyl-prolyl cis-trans isomerase FKBP1A (Homo sapiens) (UniProt P62942)
Assay: small-molecule binding to FKBP12 – biophysical, NMR detection (AID 608)
Details: purified FKBP12

Peptidyl-prolyl cis-trans isomerase FKBP1A (Homo sapiens), sequence (P62942 whole entry, looked up): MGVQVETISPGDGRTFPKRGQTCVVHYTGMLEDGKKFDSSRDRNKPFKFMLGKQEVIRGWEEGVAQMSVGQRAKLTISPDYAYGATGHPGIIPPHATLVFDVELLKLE

Compound | Kd
C=CCCCCCCCCCCCc1ccco1 | > 4 mM (inactive)
Cc1ccc(C(=O)Nc2ccncc2)o1 | > 4 mM (inactive)
Cc1cc(C)n(-c2cccc3cccnc23)n1 | > 4 mM (inactive)
Cn1c(SCC(N)=O)nnc1-c1cccnc1 | > 4 mM (inactive)
CC1(C)Cc2cccc(CO)c2O1 | > 4 mM (inactive)
COc1ccc(/C=C/c2cc(O)cc(O)c2)cc1 | > 4 mM (inactive)
COc1ccc(-c2cc(=O)c3c(O)cc(O[C@H]4O[C@H](CO[C@@H]5O[C@@H](C)[C@H](O)[C@@H](O)[C@H]5O)[C@@H](O)[C@H](O)[C@H]4O)cc3o2)cc1 | > 4 mM (inactive)
COc1ccc(/C=C2/NC(=S)NC2=O)cc1 | > 4 mM (inactive)
Cc1ccc(NC(=O)N2CCC(C(N)=O)CC2)cc1 | > 4 mM (inactive)
O=C(O)/C=C1\NC(=O)c2ccccc21 | > 4 mM (inactive)
O=C(O)C1(S(=O)(=O)c2ccccc2)CC1 | > 4 mM (inactive)
O=C(NCc1ccc2c(c1)OCO2)c1cccs1 | > 4 mM (inactive)
CC(=O)OCC(=O)[C@@]1(O)CCC2C3CC[C@@H]4C[C@H](O)CC[C@]4(C)C3C(=O)C[C@@]21C (stereo not given in full) | > 4 mM (inactive)
Cc1c(/C=N/O)cnn1C | > 4 mM (inactive)
Cc1cc(=O)c2c(O)cc(O)c(C)c2o1 | > 4 mM (inactive)
C=CCCCCCCCCCCCC(O)CC(O)CO (stereo not given) (tested in a mixture with another compound) | > 4 mM (inactive)
CCOC(=O)c1c(C)cc(OC)cc1O | > 4 mM (inactive)
O=c1c2c(nc3nc(Cc4ccccc4)[nH]n13)CCC2 | > 4 mM (inactive)
c1ccc(-c2nsc(N3CCCNCC3)n2)cc1 | > 4 mM (inactive)
O=C1C2CC=CCC2C(=O)N1c1cccc(O)c1 (stereo not given) | > 4 mM (inactive)
Cc1nc2ccc(NC(=O)N3CCOCC3)cc2s1 | > 4 mM (inactive)
CCOC(=O)c1csc(N)n1 | > 4 mM (inactive)
NS(=O)(=O)c1ccc2c3c(cccc13)C(=O)N2 | > 4 mM (inactive)
Cn1nnc2cc(C(=O)O)ccc21 | > 4 mM (inactive)

Compound | Kd
Nc1cc(C(=O)N2CCCC2)cc(C(=O)N2CCCC2)c1 | > 4 mM (inactive)
CN1C2CCC1CC(OC(=O)C(CO)c1ccccc1)C2 (stereo not given) | > 4 mM (inactive)
O=C1CCCc2c1nc(-c1ccccc1)n2O | > 4 mM (inactive)
O=C(O)CCCCC1SCC2NC(=O)NC21 (stereo not given) | > 4 mM (inactive)
Cc1[nH]c(=O)[nH]c(=O)c1N1CCOCC1 | > 4 mM (inactive)
CC[C@@]1(O)C[C@H](O[C@H]2C[C@H](N(C)C)[C@H](O)[C@H](C)O2)c2c(cc3c(c2O)C(=O)c2c(O)cccc2C3=O)[C@H]1C(=O)OC | > 4 mM (inactive)
[O-][n+]1cc(O)c(CN2CCOCC2)c2ccccc21 | > 4 mM (inactive)
COc1ccccc1NC(=O)/C=N/O | > 4 mM (inactive)
Cc1n[nH]c(C)c1NC(=O)c1cccc(F)c1 | > 4 mM (inactive)
COc1ccc(NC(=O)C(N)=O)cc1Cl | > 4 mM (inactive)
CC1=C(CCC(=O)O)c2cc3nc(cc4[nH]c(cc5[nH]c(cc1n2)c(C)c5C(C)O)c(C)c4C(C)O)C(C)=C3CCC(=O)O (stereo not given) | > 4 mM (inactive)
CC(NC(=O)C1CCCCC1)C(=O)NC1=NCCS1 (stereo not given) | > 4 mM (inactive)
Cc1cc2nc(SCC(=O)O)nc(C)c2cc1C | > 4 mM (inactive)
O=C(O)Cn1nnnc1-c1ccc(F)cc1 | > 4 mM (inactive)
COC(=O)c1sc(N)nc1C | > 4 mM (inactive)
Cc1ccc(-c2c(C)n([O-])c3c([n+]2=O)CCCC3)o1 | > 4 mM (inactive)
Cc1ccccc1NC(=O)c1ocnc1C | > 4 mM (inactive)
CCOc1ccc(OCC(=O)N2CCOCC2)cc1 | inactive
O=S1(=O)NC(=NCc2ccccc2)c2ccccc21 | > 4 mM (inactive)
O=C(NC(=O)N1CCOCC1)c1ccccc1 | > 4 mM (inactive)
O=C(O)c1cccc2c1OCCCO2 | > 4 mM (inactive)
Nc1cccc(C(=O)Nc2ccc(N)cc2Cl)c1 | > 4 mM (inactive)
CCNC(=O)CC[C@H](N)C(=O)O | > 4 mM (inactive)
Cc1occc1C(=O)N1CCC2(CC1)OCCO2 | > 4 mM (inactive)

Compound | Kd
O=C(NCc1ccco1)c1cccc(F)c1 | > 4 mM (inactive)
O=C(O)C1Cc2ccccc2O1 (stereo not given) | > 4 mM (inactive)
Cn1cnc2c1c(=O)[nH]c(=O)n2C | > 4 mM (inactive)
COc1ccc(C(=O)NC2=NCCS2)cc1OC | > 4 mM (inactive)
O=S1(=O)CCC(NC(=S)N2CCCCC2)C1 (stereo not given) | > 4 mM (inactive)
O=C(O)C1CSC(c2cccnc2)N1 (stereo not given) | > 4 mM (inactive)
CNC(=S)Nc1ccc(C(=O)O)cc1 | > 4 mM (inactive)
O=C(O)C1CCN(c2ccc(C(F)(F)F)cn2)CC1 | > 4 mM (inactive)
NC(N)=NCCCCN=C(N)N | > 4 mM (inactive)
O=C(O)CCCc1nc2ccccc2s1 | > 4 mM (inactive)
CN(C)N1C(=O)C2CCCCC2C1=O (stereo not given) | > 4 mM (inactive)
NC(=O)c1ccccc1NC(=O)c1cccnc1 | > 4 mM (inactive)
Nc1ccc2c(c1)OCO2 | > 4 mM (inactive)
O=C(O)c1cccnc1N1CCCC1 | > 4 mM (inactive)
Cc1nnsc1C(=O)Nc1ccc(C(N)=O)cc1 | > 4 mM (inactive)
Cn1c(SCC(=O)NCCO)nc2ccccc2c1=O | > 4 mM (inactive)
NC(=O)CN1C(=O)c2cccc3cccc1c23 | > 4 mM (inactive)
CC(CCC(=O)O)[C@H]1CCC2C3CC[C@@H]4CCCC[C@]4(C)C3CC[C@@]21C (stereo not given in full) | > 4 mM (inactive)
COC(=O)N(c1ccccc1)P1(=S)OCCO1 | > 4 mM (inactive)
COc1ccc(C[C@H]2NC[C@H](O)[C@H]2OC(C)=O)cc1 | > 4 mM (inactive)
Cc1cc(Cl)ccc1OCC(=O)N1CCOCC1 | inactive
O=C(Nc1nccs1)c1ccc(=O)[nH]n1 | > 4 mM (inactive)
S=C(c1ccc(N2CCOCC2)cc1)N1CCCCC1 | > 4 mM (inactive)
CN1CCn2c1nc(N1CCOCC1)nc2=O | > 4 mM (inactive)

Compound | Kd
Nc1ccccc1-n1cccn1 | > 4 mM (inactive)
O=C1C2CC=CCC2C(=O)N1c1ccccc1O (stereo not given) | > 4 mM (inactive)
O=S1(=O)CCC(NC(=S)Nc2ccccn2)C1 (stereo not given) | > 4 mM (inactive)
O=c1ccc2nc3ccccc3c(=O)n2[nH]1 | > 4 mM (inactive)
COc1cccc(/C=N/N=C2/NC(=O)CS2)c1 | > 4 mM (inactive)
CCOC(=O)c1nc2ccccc2c(=O)n1N | > 4 mM (inactive)
CC1=C/C(=C\c2c(O)[nH]c(=O)[nH]c2=O)C(C)=N1 | > 4 mM (inactive)
Cc1ccsc1/C=c1\sc2ncnn2c1=O | > 4 mM (inactive)
CC(C)CCCC(C)[C@H]1CCC2C3CC=C4CC(=O)CC[C@]4(C)C3CC[C@@]21C (stereo not given in full) | > 4 mM (inactive)
Cc1cc2c(nn1)CCc1nonc1-2 | > 4 mM (inactive)
O=C1C2C3C=CC(C3)C2C(=O)N1CCCO (stereo not given) | > 4 mM (inactive)
CC1CCC2(OC1)OC1CC3C4CC[C@H]5C[C@@H](O)CC[C@]5(C)C4CC(=O)[C@]3(C)C1C2C (stereo not given in full) | > 4 mM (inactive)
CN1CCC(N(C)Cc2cccnc2)CC1 | > 4 mM (inactive)
COC(=O)[C@@H]1OC(=O)C2OC23[C@@]1(C)CCC1[C@@]2(C)CCC(=O)C(C)(C)C2C[C@@H](OC(C)=O)[C@]13C (stereo not given in full) | > 4 mM (inactive)
S=C(Nc1ccc2nccnc2c1)N1CCOCC1 | > 4 mM (inactive)
CC(=O)Nc1ccn(-c2ccccc2)n1 | > 4 mM (inactive)
CN1C(=O)c2ccc(N=C3NC(=O)CS3)cc2C1=O | > 4 mM (inactive)
Cc1cc(=O)oc2cc3c(cc12)OCCO3 | > 4 mM (inactive)
NCC1CN(Cc2ccccc2)CCO1 (stereo not given) | > 4 mM (inactive)
O=C(O)CCCCCCCCCCCCC1C=CCC1 (stereo not given) | > 4 mM (inactive)
Clc1ncnc2[nH]ncc12 | > 4 mM (inactive)
COc1cc(O)c(C(C)=O)c(OC)c1 | > 4 mM (inactive)
O=C1C(=O)N(CNc2ncccn2)c2ccccc21 | > 4 mM (inactive)
NCc1n[nH]c(=O)c2ccccc12 | > 4 mM (inactive)

Compound | Kd
Cc1nc(-c2cc(C(=O)O)no2)cs1 | > 4 mM (inactive)
O=C1CCC(=O)N1CNc1ccccc1 | > 4 mM (inactive)
COc1cc([C@@H]2c3cc4c(cc3C(OC3O[C@@H]5COC(C)O[C@H]5[C@H](O)[C@H]3O)C3COC(=O)[C@@H]32)OCO4)cc(OC)c1O (stereo not given in full) | > 4 mM (inactive)
O=C(CSc1ncnc2ccccc12)NCCCO | > 4 mM (inactive)
C[C@H]1CCCC(=O)CCC/C=C/c2cc(O)cc(O)c2C(=O)O1 | > 4 mM (inactive)
CC(=O)Nn1cc2c(=O)n(C)c(=O)n(C)c2c1 | > 4 mM (inactive)
NC(=O)c1ccc(SCC(=O)O)c([N+](=O)[O-])c1 | > 4 mM (inactive)
O=C(O)CCSc1nc2ccccc2s1 | > 4 mM (inactive)
O=C1NC(=O)C2C3C=CC(O3)C12 (stereo not given) | > 4 mM (inactive)
O=C(O)c1cc2ccccc2s1 | > 4 mM (inactive)
CC1CN(C(=O)C(Sc2ccccc2)c2ccccc2)CC(C)O1 (stereo not given) | inactive
Cc1onc(-c2ccccc2)c1C(=O)O | > 4 mM (inactive)
O=c1cc(-c2ccccc2)oc2cc(O)cc(O)c12 | > 4 mM (inactive)
Cn1[nH]c(C(F)(F)F)cc1=O | > 4 mM (inactive)
Cc1nn(CC(=O)Nc2ccccn2)c(=O)c2ccccc12 | > 4 mM (inactive)
O=C(NCC1CCNCC1)c1ccccn1 | > 4 mM (inactive)
CCOC(=O)CNc1ncnc2c1nnn2CC | > 4 mM (inactive)
CC(=O)Oc1cc2c(C(C)=O)coc2c2ccccc12 | > 4 mM (inactive)
C=CCc1cc(C(=O)N2CCCCC2)ccc1O | > 4 mM (inactive)
COc1cc(C(=S)N2CCCC2)cc(Cl)c1O | > 4 mM (inactive)
CC1=C(C(N)=O)C(c2ccccc2)NC(=O)N1 (stereo not given) | > 4 mM (inactive)
Clc1ccccc1-c1nc(-c2cccnc2)no1 | > 4 mM (inactive)
Cc1ccc(N2NC(=O)CC2=O)cc1C | > 4 mM (inactive)
O=C(O)Cc1noc2ccccc12 | > 4 mM (inactive)
